Assay results as given in patent US11427567B2, “Imidazolyl pyrimidinylamine compounds as CDK2 inhibitors” (Incyte Corporation, priority 2019, dated 2022).

Molecular target: CDK2/Cyclin E1 (Homo sapiens (Human), UniProt P24941)
Test: CDK2/Cyclin E1 HTRF enzyme activity assay (Example A)
Format: biochemical
Settings: 1 mM ATP
Description: Assays were conducted in white 384-well polystyrene plates in a final reaction volume of 8 μL. […] HTRF signals were read after 1 hour at room temperature on a PHERAstar FS plate reader (BMG Labtech). Data was analyzed with IDBS XLFit and GraphPad Prism 5.0 software using a three or four parameter dose response curve to determine IC50 for each compound.

IC50, ≤ 50 nM:
CC(C)NCc1cc(F)c(-n2cnc(-c3nc(NC4CCN(S(C)(=O)=O)CC4)ncc3C(F)(F)F)c2)c(Cl)c1 [Example 394, 4-(1-(2-Chloro-6-fluoro-4-((isopropylamino)methyl)phenyl)-1H-imidazol-4-yl)-N-(1-(methylsulfonyl)piperidin-4-yl)-5-(trifluoromethyl)pyrimidin-2-amine]
Cc1nc(-c2nc(NC3CCN(S(C)(=O)=O)CC3)ncc2C(F)(F)F)cn1-c1ccc(N2CCC[C@H](N(C)C)C2)cc1F [Example 106, (S)-4-(1-(4-(3-(Dimethylamino)-piperidin-1-yl)-2-fluorophenyl)-2-methyl-1H-imidazol-4-yl)-N-(1-(methyl-sulfonyl)piperidin-4-yl)-5-(trifluoro-methyl)pyrimidin-2-amine]
CN1CCN(CCc2cccc(-n3cnc(-c4nc(NC5CCN(S(C)(=O)=O)CC5)ncc4C(F)(F)F)c3)c2Cl)CC1 [Example 464, 4-(1-(2-Chloro-3-(2-(4-methylpiperazin-1-yl)ethyl)phenyl)-1H-imidazol-4-yl)-N-(1-(methylsulfonyl)piperidin-4-yl)-5-(trifluoromethyl)pyrimidin-2-amine]
Cn1nncc1-c1ccc(-n2cnc(-c3nc(NC4CCN(S(C)(=O)=O)CC4)ncc3C(F)(F)F)c2)c(Cl)c1 [Example 122, 4-(1-(2-Chloro-4-(1-methyl-1H-1,2,3-triazol-5-yl)phenyl)-1H-imidazol-4-yl)-N-(1-(methyl-sulfonyl)piperidin-4-yl)-5-(trifluoro-methyl)pyrimidin-2-amine]
CN1CCN(Cc2ccc(-n3cnc(-c4nc(NC5CCN(S(C)(=O)=O)CC5)ncc4C(F)(F)F)c3)c(Cl)c2)C(=O)C1 [Example 451, 1-(3-Chloro-4-(4-(2-((1-(methylsulfonyl)piperidin-4-yl)amino)-5-(trifluoromethyl)pyrimidin-4-yl)-1H-imidazol-1-yl)benzyl)-4-methylpiperazin-2-one]
CS(=O)(=O)N1CCC(Nc2ncc(C(F)(F)F)c(-c3cn(-c4ccc(Cn5cncn5)cc4Cl)cn3)n2)CC1 [Example 240, 4-(1-(4-((1H-1,2,4-Triazol-1-yl)methyl)-2-chlorophenyl)-1H-imidazol-4-yl)-N-(1-(methylsulfonyl)piperidin-4-yl)-5-(trifluoromethyl)pyrimidin-2-amine]
CN(C)C(=O)c1ccc(-n2cnc(-c3nc(NC4CCN(S(C)(=O)=O)CC4)ncc3C(F)(F)F)c2)c(Cl)c1F [Example 136, 3-Chloro-2-fluoro-N,N-dimethyl-4-(4-(2-((1-(methylsulfonyl)piperidin-4-yl)amino)-5-(trifluoromethyl)pyrimidin-4-yl)-1H-imidazol-1-yl)benzamide]
CS(=O)(=O)N1CCC(Nc2ncc(C(F)(F)F)c(-c3cn(-c4ccccc4F)c(Br)n3)n2)CC1 [Example 461, 4-(2-Bromo-1-(2-fluorophenyl)-1H-imidazol-4-yl)-N-(1-(methylsulfonyl)piperidin-4-yl)-5-(trifluoromethyl)pyrimidin-2-amine]
CS(=O)(=O)N1CCC(Nc2ncc(C(F)(F)F)c(-c3cn(-c4cccc(CN5CC[C@H](O)C5)c4Cl)cn3)n2)CC1 [Example 365, (S)-1-(2-Chloro-3-(4-(2-((1-(methylsulfonyl)piperidin-4-yl)amino)-5-(trifluoromethyl)pyrimi-din-4-yl)-1H-imidazol-1-yl)benzyl)pyrrolidin-3-ol]
CCNCc1ccc(-n2cnc(-c3nc(NC4CCN(S(C)(=O)=O)CC4)ncc3C(F)(F)F)c2)c(Cl)c1 [Example 189, 4-(1-(2-Chloro-4-((ethylamino)methyl)-phenyl)-1H-imidazol-4-yl)-N-(1-(methyl-sulfonyl)piperidin-4-yl)-5-(trifluoro-methyl)pyrimidin-2-amine]
